Source: US20210309595A1, “COMPOSITION FOR FORMING OPTICAL COMPONENT, OPTICAL COMPONENT, COMPOUND, AND RESIN” (Mitsubishi Gas Chemical Company, Inc., priority 2018, published 2021)

How the values were obtained:
Type in all cases: physicochemical
[1] = Solubility test in organic solvent (amount of dissolution); conditions: amount of dissolution in propylene glycol monomethyl ether, 23° C., ultrasonic waves 30 minutes, visual observation
Procedure: With respect to the solubility of each compound in an organic solvent, the solubility of the compound in propylene glycol monomethyl ether was measured. The solubility was evaluated according to the following criteria, using the amount of dissolution in propylene glycol monomethyl ether. For the measurement of the amount of dissolution, the evaluation was carried out by precisely weighing the compound in a test tube at 23° C., […], applying ultrasonic waves for 30 minutes with an ultrasonic cleaning machine, visually observing the subsequent state of the liquid, and determining the concentration of the completely dissolved amount as the basis.

[2] = Refractive index of optical component forming film (spectroscopic ellipsometer); conditions: wavelength 633 nm; 1000 nm film from 5% by mass composition, baked 110° C. 60 seconds
Procedure: (§1) The compositions for forming optical components were each prepared so that the amount of the compound shown in the following table was 5% by mass in propylene glycol methyl ether. Next, a silicon substrate was spin coated with each of these compositions for forming an optical component, and then baked at 110° C. for 60 seconds to prepare an optical component forming film each having a film thickness of 1000 nm.
(§2) Then, tests for the refractive index and the transparency at a wavelength of 633 nm were carried out by using a vacuum ultraviolet with variable angle spectroscopic ellipsometer (model name: VUV-VASE) manufactured by J.A. Woollam Japan, and the refractive index and the transparency were evaluated.

[3] = Film heat resistance (visual defects after baking); parameters: key: A: No visual defects in the film; C: Visual defects in the film (including the loss of films); conditions: film baked at 110° C. for 5 minutes
Procedure: as §1
The optical component forming film was baked at 110° C. for 5 minutes to evaluate the film heat resistance.

[4] = Transparency (absorption coefficient) of optical component forming film; conditions: absorption coefficient at wavelength 633 nm; 1000 nm film, baked 110° C. 60 seconds
Procedure: as §1, §2

Row | Compound | Solubility test [1] | Evaluation of film heat resistance [3] | Evaluation of refractive index [2] | Evaluation of transparency [4]
1 | C=C(C)C(=O)OCC(O)COc1ccc2ccc3c(c2c1)C(c1ccc2ccccc2c1)c1c(ccc2ccc(OCC(O)COC(=O)C(=C)C)cc12)O3 (centres unmarked) [BiN-1-Ea] | A (5.0% by mass≤amount of dissolution) | A | B (The refractive index is 1.65 or more and less than 1.75.) | A (The absorption coefficient is less than 0.03.)
2 | c1ccc2cc(C3c4c(ccc5ccc(OCCOCC6CO6)cc45)Oc4ccc5ccc(OCCOCC6CO6)cc5c43)ccc2c1 (centres unmarked) [BiN-1-GE] | A (5.0% by mass≤amount of dissolution) | A | A (The refractive index is 1.75 or more.) | A (The absorption coefficient is less than 0.03.)
3 | Oc1ccc(CCOc2ccc3ccc4c(c3c2)C(c2ccc3ccccc3c2)c2c(ccc3ccc(OCCc5ccc(O)cc5)cc23)O4)cc1 [BiN-1-PE] | A (5.0% by mass≤amount of dissolution) | A | A (The refractive index is 1.75 or more.) | A (The absorption coefficient is less than 0.03.)
4 | C=Cc1ccc(COCCOc2ccc3ccc4c(c3c2)C(c2ccc3ccccc3c2)c2c(ccc3ccc(OCCOCc5ccc(C=C)cc5)cc23)O4)cc1 [BiN-1-SE] | A (5.0% by mass≤amount of dissolution) | A | A (The refractive index is 1.75 or more.) | A (The absorption coefficient is less than 0.03.)
5 | C=Cc1ccc(COc2ccc3ccc4c(c3c2)C(c2ccc3ccccc3c2)c2c(ccc3ccc(OCc5ccc(C=C)cc5)cc23)O4)cc1 [BiN-1-SX] | A (5.0% by mass≤amount of dissolution) | A | A (The refractive index is 1.75 or more.) | A (The absorption coefficient is less than 0.03.)
6 | C=C(C)C(=O)OCCC(N)C(=O)Oc1ccc2ccc3c(c2c1)C(c1ccc2ccccc2c1)c1c(ccc2ccc(OC(=O)C(N)CCOC(=O)C(=C)C)cc12)O3 (centres unmarked) [BiN-1-Ua] | A (5.0% by mass≤amount of dissolution) | A | B (The refractive index is 1.65 or more and less than 1.75.) | A (The absorption coefficient is less than 0.03.)
7 | CC(C)(C)OC(=O)COc1ccc2c3c(ccc2c1)Oc1ccc2cc(OCC(=O)OC(C)(C)C)ccc2c1C3c1ccc2ccccc2c1 [BiN-3-MeBOC] | A (5.0% by mass≤amount of dissolution) | A | B (The refractive index is 1.65 or more and less than 1.75.) | A (The absorption coefficient is less than 0.03.)
8 | Oc1ccc2c(C(c3ccc4ccccc4c3)c3c(O)ccc4cc(O)ccc34)c(O)ccc2c1 [BiN-3U] | A (5.0% by mass≤amount of dissolution) | A | A (The refractive index is 1.75 or more.) | A (The absorption coefficient is less than 0.03.)
9 | Oc1cc2ccccc2c(C(c2ccc3ccccc3c2)c2c(O)c(O)cc3ccccc23)c1O [BiN-5U] | A (5.0% by mass≤amount of dissolution) | A | A (The refractive index is 1.75 or more.) | A (The absorption coefficient is less than 0.03.)

Further lines, with some results ahead:

Row | Solubility test [1] | Evaluation of film heat resistance [3] | Compound | Evaluation of refractive index [2] | Evaluation of transparency [4]
10 | A (5.0% by mass≤amount of dissolution) | A | C=CC(=O)Oc1ccc2ccc3c(c2c1)C(c1ccc2ccccc2c1)c1c(ccc2ccc(OC(=O)C=C)cc12)O3 [BiN-1-Ac] | B (The refractive index is 1.65 or more and less than 1.75.) | A (The absorption coefficient is less than 0.03.)
11 | A (5.0% by mass≤amount of dissolution) | A | OCCOc1ccc2ccc3c(c2c1)C(c1ccc2ccccc2c1)c1c(ccc2ccc(OCCO)cc12)O3 [BiN-1-E] | B (The refractive index is 1.65 or more and less than 1.75.) | A (The absorption coefficient is less than 0.03.)
12 | A (5.0% by mass≤amount of dissolution) | A | c1ccc2cc(C3c4c(ccc5ccc(OCC6CO6)cc45)Oc4ccc5ccc(OCC6CO6)cc5c43)ccc2c1 (centres unmarked) [BiN-1-G] | A (The refractive index is 1.75 or more.) | A (The absorption coefficient is less than 0.03.)
13 | A (5.0% by mass≤amount of dissolution) | A | Oc1ccc(Oc2ccc3ccc4c(c3c2)C(c2ccc3ccccc3c2)c2c(ccc3ccc(Oc5ccc(O)cc5)cc23)O4)cc1 [BiN-1-PX] | A (The refractive index is 1.75 or more.) | A (The absorption coefficient is less than 0.03.)
14 | A (5.0% by mass≤amount of dissolution) | A | C#CCOc1ccc2ccc3c(c2c1)C(c1ccc2ccccc2c1)c1c(ccc2ccc(OCC#C)cc12)O3 [BiN-1-Pr] | A (The refractive index is 1.75 or more.) | A (The absorption coefficient is less than 0.03.)
15 | A (5.0% by mass≤amount of dissolution) | A | Oc1ccc2ccc(O)c(C(c3ccc4ccccc4c3)c3c(O)ccc4ccc(O)cc34)c2c1 [BiN-1U] | A (The refractive index is 1.75 or more.) | A (The absorption coefficient is less than 0.03.)
16 | A (5.0% by mass≤amount of dissolution) | A | Oc1ccc2ccc3c(c2c1)C(c1ccc2ccccc2c1)c1c(ccc2ccc(O)cc12)O3 [BiN-1] | A (The refractive index is 1.75 or more.) | A (The absorption coefficient is less than 0.03.)
17 | A (5.0% by mass≤amount of dissolution) | A | Oc1ccc2ccc3c(c2c1)C(c1cccc2ccccc12)c1c(ccc2ccc(O)cc12)O3 [BiN-2] | A (The refractive index is 1.75 or more.) | A (The absorption coefficient is less than 0.03.)
18 | A (5.0% by mass≤amount of dissolution) | A | C=CCOc1ccc2c3c(ccc2c1)Oc1ccc2cc(OCC=C)ccc2c1C3c1ccc2ccccc2c1 [BiN-3-AL] | A (The refractive index is 1.75 or more.) | A (The absorption coefficient is less than 0.03.)
19 | A (5.0% by mass≤amount of dissolution) | A | Oc1ccc2c3c(ccc2c1)Oc1ccc2cc(O)ccc2c1C3c1ccc2ccccc2c1 [BiN-3] | A (The refractive index is 1.75 or more.) | A (The absorption coefficient is less than 0.03.)
20 | A (5.0% by mass≤amount of dissolution) | A | CC1(c2ccc3ccccc3c2)c2c(ccc3ccc(O)cc23)Oc2ccc3ccc(O)cc3c21 [BiN-4] | A (The refractive index is 1.75 or more.) | A (The absorption coefficient is less than 0.03.)
